Series [1] concerns the target T1, DPPIV (Homo sapiens (Human), UniProt P27487). The experiment in a line: DPP-IV-inhibiting activity, fluorescence assay with Ala-Pro-AMC substrate. The conditions noted are these: pH7.5, 37° C. It is filed as biochemical. As to the method: Determination of DPP-IV-inhibiting activity could be performed by common methods. DPP-IV was pure enzyme expressed by using baculovirus expressing system and purified. […] The reaction system was carried out in buffer of pH7.5 and the substrate was alanine-proline-7-amino-4-methylcoumarin (Ala-Pro-AMC).
DPP-IV could degradate substrate Ala-Pro-AMC to give product AMC. […] The DPP-IV activity could be determined by dynamic detecting the increasing speed of fluorescence value at 460 nm.
Thoroughly mixed test compounds, enzyme and reaction buffer, preincubated the mixture for 15 minutes at 37° C. and then primed reaction by adding substrate, successfully detecting fluorescence value at 460 nm for 5 minutes. […] All final reaction volumes were 100 μL. Each concentration of each sample consisted of parallel wells in triplate.
Firstly, calculated the increment of fluorescence intensity per unit time during the initial speed of enzyme (unit: RFU/sec) which can be used to express initial speed, then calculated activity percentage of sample in each concentration group as follows: Activity %=vsample/vDMSO*100%
Wherein, vsample represents initial speed of sample in each concentration group, vDMSO represents initial speed of DMSO group.
Logarithm concentration was plotted versus activity percentage, and then calculated fitting curve by nonlinear regression from which IC50 value was calculated.

The target in the next series is FAP (Homo sapiens (Human), UniProt Q12884). The experiment in a line: Selectivity panel, recombinant dipeptidase inhibition (fluorescence substrate): FAP. It is filed as biochemical. From the text: (§1) The recombinant proteins of DPPIV, DPP8, DPP9 and FAP were expressed by using insect expression system (purchased from Shanghai Jinmai Biotechnology Co. Ltd). The activities of these […] were detected by using fluorescence substrate.
Chain of FAP (Q12884 whole entry): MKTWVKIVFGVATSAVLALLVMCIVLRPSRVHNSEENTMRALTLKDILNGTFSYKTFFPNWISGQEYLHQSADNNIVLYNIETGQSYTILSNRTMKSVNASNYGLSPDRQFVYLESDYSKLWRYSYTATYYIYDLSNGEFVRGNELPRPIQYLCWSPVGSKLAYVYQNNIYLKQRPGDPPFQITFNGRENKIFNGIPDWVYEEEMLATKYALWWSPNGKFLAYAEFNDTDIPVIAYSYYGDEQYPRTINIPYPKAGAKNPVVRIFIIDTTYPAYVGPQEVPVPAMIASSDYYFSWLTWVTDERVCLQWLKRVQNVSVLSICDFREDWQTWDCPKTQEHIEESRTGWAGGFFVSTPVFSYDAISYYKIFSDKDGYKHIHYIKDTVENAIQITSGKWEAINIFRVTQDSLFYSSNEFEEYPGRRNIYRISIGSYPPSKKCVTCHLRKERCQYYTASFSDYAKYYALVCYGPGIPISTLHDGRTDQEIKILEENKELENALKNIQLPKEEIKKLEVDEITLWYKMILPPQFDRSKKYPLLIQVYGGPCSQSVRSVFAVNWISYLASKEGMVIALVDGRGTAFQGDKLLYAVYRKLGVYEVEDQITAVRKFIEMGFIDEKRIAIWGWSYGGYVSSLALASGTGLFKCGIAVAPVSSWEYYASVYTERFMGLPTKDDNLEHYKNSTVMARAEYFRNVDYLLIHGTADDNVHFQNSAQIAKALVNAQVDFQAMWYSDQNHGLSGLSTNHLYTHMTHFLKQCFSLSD

A further series addresses DPP8 (Homo sapiens (Human), UniProt Q6V1X1). The series can be described thus: Selectivity panel, recombinant dipeptidase inhibition (fluorescence substrate): DPP8. Format: biochemical. The conditions noted are these: for Selective ratio DPP8/DPPIV: ratio of IC50 values; for IC50: recombinant DPP8.
Description: as §1

In a further series the target is DPP9 (Homo sapiens (Human), UniProt Q86TI2). The experiment in a line: Selectivity panel, recombinant dipeptidase inhibition (fluorescence substrate): DPP9. Format: biochemical. To be noted: for Selective ratio DPP9/DPPIV: ratio of IC50 values; for IC50: recombinant DPP9.
Chain of DPP9 (Q86TI2 whole entry): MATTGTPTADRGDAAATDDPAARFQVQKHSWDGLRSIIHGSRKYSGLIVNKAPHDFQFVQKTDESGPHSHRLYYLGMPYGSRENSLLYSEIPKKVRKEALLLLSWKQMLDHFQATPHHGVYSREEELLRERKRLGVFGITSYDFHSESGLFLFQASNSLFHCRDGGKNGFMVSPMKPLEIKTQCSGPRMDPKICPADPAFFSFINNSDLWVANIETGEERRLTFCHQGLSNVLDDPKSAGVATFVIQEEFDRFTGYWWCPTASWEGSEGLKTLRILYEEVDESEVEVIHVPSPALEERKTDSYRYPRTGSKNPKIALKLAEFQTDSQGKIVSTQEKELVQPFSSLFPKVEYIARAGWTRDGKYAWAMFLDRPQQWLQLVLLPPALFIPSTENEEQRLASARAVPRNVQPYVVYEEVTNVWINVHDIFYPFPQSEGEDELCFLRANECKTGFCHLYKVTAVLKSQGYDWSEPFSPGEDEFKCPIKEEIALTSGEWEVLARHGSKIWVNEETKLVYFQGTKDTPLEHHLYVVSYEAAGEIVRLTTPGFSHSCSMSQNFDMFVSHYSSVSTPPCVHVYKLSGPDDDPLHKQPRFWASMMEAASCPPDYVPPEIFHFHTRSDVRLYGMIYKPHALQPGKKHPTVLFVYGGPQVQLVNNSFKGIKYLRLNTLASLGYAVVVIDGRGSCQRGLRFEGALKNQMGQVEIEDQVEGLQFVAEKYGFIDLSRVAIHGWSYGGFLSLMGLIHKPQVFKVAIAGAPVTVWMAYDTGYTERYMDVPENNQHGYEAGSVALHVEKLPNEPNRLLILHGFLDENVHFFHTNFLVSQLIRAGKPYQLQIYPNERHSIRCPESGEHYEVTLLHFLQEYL
Description: as §1

Series [2] addresses T1, DPPIV. The series can be described thus: Selectivity panel, recombinant dipeptidase inhibition (fluorescence substrate): DPPIV. It is filed as biochemical.
Description: as §1

A short description of series [3]: In vivo pharmacokinetic study in rats (gavage). The conditions noted are these: 20 mg/kg gavage. Also on record: species or system SD rats. As to the method: 12 healthy, male SD rats with 200-220 g body weight were assigned randomly to 3 groups (4 in each group), particular assignment was shown in the table below:
Rats were fasted for 12 h before test with free access to water and uniformly fed at 2 h after administration.
Time points of blood collecting and samples treatment: 0.3 mL blood was drawn through mice post-glomus venous plexus at 0.25, 0.5, 1.0, 2.0, 3.0, 4.0, 5.0, 7.0, 9.0 and 24 hours post-administration, placed in heparinized test tube, centrifuged at 3000 rpm/min for 10 minutes, separated plasma, frozen in refrigerator at −20° C. Unchanged drug concentration in plasma was determined by liquid chromatography-tandem mass spectrometry method.

The next series deals with normal ICR mice. The series can be described thus: In vivo glucose-decreasing activity, oral glucose load in normal mice. To be noted: 3.0 mg/kg gavage; for AUC (area under curve of blood glucose): glucose load 60 min post-administration, x ± s. How it is done: 70 male clean-grade ICR mice with 20.0-24.0 g body weight were provided by Experimental Animal Center of Zhejiang University. Production license number of experimental animal: SCXK[zhe]2007-0039; Use license number of experimental animal: SYXK(zhe)2007-0098.
Feeding condition for animals: met the requirement for experimental facility of SPF grade animals, temperature at 20-25° C., humidity of 0-70%, illuminating condition was alternately 12 hours of brightness and 12 hours of darkness, ventilation rate was 10-20 times per hour, free access to water (city drinking water), illumination was 12 h/12 h of alternating light and dark at day and night respectively.
50 male clean-grade mice passing quarantine with 20.0-24.0 g body weight were randomly divided into 5 groups which included solvent control group, model group, compound dose group (3.0 mg/kg) respectively, 10 per group.
Mice in each group were fasted for 12 hours and then 0.08 mL blood was drawn by cutting tail. Serum was collected and used to determinating fasting blood glucose value. After drawing blood, mice in each dose group were administrated by gavage with different drug solution of corresponding dose and mice in solvent control and model group were administrated with distilled water of equal volume, wherein administration volume was 0.2 mL/10 g. 0.08 mL blood was drawn from each group at 60 minutes post-administration to determine the blood glucose value at 60 minutes post-administration. After drawing blood, […] glucose was administrated by gavage to each group except for solvent control group, wherein administration volume was 0.2 mL/10 g, and then blood was drawn at 20 min, 40 min, 60 min, 120 min after administration of glucose respectively, blood was centrifugated at 6000 rpm for 10 min to separate serum for determining the blood glucose value at each time point, area under curve of blood glucose was calculated on the basis of blood glucose concentration.

Where [4] appears, read: male, SD, rat, plasma, po, read-out: Cmax.
[5] abbreviates: male, SD, rat, plasma, po, read-out: Tmax.

Molecules are shown by their SMILES. Counter-ions that a name gives are not always drawn. Like-named read-outs stand apart in the source and are kept apart here.

One may read the IC50 as the point on the concentration scale where inhibition reaches its midpoint. The term half-life denotes the time in which the quantity being followed falls by half. One may read the Cmax as the highest concentration seen after dosing. A word on the Tmax: it is the time from dosing to the highest level.

T1 sequence (P27487 whole entry): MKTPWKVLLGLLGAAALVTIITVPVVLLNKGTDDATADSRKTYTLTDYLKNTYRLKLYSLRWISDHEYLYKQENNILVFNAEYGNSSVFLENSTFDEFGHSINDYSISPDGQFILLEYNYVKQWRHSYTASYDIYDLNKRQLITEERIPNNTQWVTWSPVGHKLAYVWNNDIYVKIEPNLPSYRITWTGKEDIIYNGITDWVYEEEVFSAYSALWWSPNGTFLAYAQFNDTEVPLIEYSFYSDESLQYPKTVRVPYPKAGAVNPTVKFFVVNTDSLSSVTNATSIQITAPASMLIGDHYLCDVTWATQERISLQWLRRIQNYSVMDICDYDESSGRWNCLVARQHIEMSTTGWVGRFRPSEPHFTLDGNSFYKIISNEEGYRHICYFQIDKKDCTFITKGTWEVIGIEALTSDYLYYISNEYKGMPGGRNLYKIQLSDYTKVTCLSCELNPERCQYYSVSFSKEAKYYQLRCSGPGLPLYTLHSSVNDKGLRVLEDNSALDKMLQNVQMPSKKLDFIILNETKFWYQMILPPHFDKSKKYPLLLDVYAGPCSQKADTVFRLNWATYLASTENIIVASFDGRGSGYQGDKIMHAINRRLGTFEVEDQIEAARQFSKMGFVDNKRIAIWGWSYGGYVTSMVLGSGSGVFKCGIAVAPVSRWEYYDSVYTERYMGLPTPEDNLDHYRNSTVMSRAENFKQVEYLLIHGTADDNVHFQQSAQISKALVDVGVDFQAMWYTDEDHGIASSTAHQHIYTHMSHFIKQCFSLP
Chain of DPP8 (Q6V1X1 whole entry): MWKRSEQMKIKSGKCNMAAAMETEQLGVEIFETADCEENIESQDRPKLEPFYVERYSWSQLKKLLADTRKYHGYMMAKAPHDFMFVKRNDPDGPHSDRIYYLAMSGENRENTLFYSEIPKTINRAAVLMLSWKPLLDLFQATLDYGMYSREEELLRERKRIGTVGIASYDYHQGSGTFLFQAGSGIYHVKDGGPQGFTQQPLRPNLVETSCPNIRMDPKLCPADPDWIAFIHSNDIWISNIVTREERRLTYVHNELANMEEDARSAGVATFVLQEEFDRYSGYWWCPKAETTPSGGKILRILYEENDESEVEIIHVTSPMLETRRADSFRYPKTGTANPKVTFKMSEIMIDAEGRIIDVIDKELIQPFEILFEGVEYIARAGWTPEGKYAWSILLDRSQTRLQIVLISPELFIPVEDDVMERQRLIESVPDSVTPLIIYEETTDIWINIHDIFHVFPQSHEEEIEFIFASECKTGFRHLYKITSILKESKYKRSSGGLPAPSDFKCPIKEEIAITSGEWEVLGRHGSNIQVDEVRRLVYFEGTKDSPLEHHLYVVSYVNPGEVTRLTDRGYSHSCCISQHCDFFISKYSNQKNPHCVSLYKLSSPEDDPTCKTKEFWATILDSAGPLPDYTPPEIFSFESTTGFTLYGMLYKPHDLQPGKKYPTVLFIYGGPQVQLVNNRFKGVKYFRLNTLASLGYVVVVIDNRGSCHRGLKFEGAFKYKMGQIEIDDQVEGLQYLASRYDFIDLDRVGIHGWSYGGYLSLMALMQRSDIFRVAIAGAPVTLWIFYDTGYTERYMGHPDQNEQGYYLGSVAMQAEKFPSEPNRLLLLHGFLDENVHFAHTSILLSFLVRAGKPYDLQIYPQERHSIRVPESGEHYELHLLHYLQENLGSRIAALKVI

With `CN1C[C@@H]2CCN(C(=O)C[C@H](N)Cc3cc(F)c(F)cc3F)[C@@H]2C1` [Compound 1, (R)-3-amino-1-((3aS,6aS)-hexahydro-5-methylpyrrolo[3,4-b]pyrrol-1(2H)-yl)-4-(2,4,5-trifluorophenyl)butan-1-one fumarate], on DPPIV [1], inhibition was half-maximal at 22.8 ± 1.99 nM (IC50).

For `N#CC1(C(=O)N2C[C@@H]3CCN(C(=O)C[C@H](N)Cc4cc(F)c(F)cc4F)[C@@H]3C2)CC1` [Compound 17, (R)-3-amino-1-((3aS,6aS)-5-(1-cyanocyclopropylcarbonyl)-hexahydropyrrolo[3,4-b]pyrrol-1(2H)-yl)-4-(2,4,5-trifluorophenyl)butan-1-one fumarate], the IC50 at DPPIV [1] is 11.5 nM.

Consider `CS(=O)(=O)c1cccc(C(=O)N2C[C@@H]3CCN(C(=O)C[C@H](N)Cc4cc(F)c(F)cc4F)[C@@H]3C2)c1.O=C(O)/C=C/C(=O)O` [Compound 26, (R)-3-amino-1-((3aS,6aS)-5-(3-mesylbenzoyl)-hexahydropyrrolo[3,4-b]pyrrol-1(2H)-yl)-4-(2,4,5-trifluorophenyl)butan-1-one fumarate], for which the IC50 on FAP came to 11300 ± 4020 nM; at DPP8, 15800 ± 7650 nM; against DPPIV [1], 2.61 ± 0.46 nM; at DPP9, 3450 ± 3470 nM; at DPPIV [2], 2.6 nM. For the same compound, at DPP8, the “Selective ratio DPP8/DPPIV” value turned out to be 6057. On DPP9, the “Selective ratio DPP9/DPPIV” value is listed as 1311.

`N[C@@H](CC(=O)N1CC[C@H]2CN(C(=O)C3CC3)C[C@H]21)Cc1cc(F)c(F)cc1F` [Compound 12, (R)-3-amino-1-((3aS,6aS)-5-(cyclopropylcarbonyl)-hexahydropyrrolo[3,4-b]pyrrol-1(2H)-yl)-4-(2,4,5-trifluorophenyl)butan-1-one fumarate] yielded an IC50 on DPPIV [1] of 25.9 ± 3.91 nM.

For the compound `CC(C)(C)C(=O)N1C[C@@H]2CCN(C(=O)C[C@H](N)Cc3cc(F)c(F)cc3F)[C@@H]2C1` [Compound 20, (R)-3-amino-1-((3aS,6aS)-5-(tertvaleryl)-hexahydropyrrolo[3,4-b]pyrrol-1(2H)-yl)-4-(2,4,5-trifluorophenyl)butan-1-one fumarate], the IC50 was 15900 ± 4720 nM at FAP; 20900 ± 5630 nM on DPP8; 23.2 ± 2.24 nM against DPPIV [1]; 5550 ± 2520 nM on DPP9; 23 nM at DPPIV [2]. Besides, the “Selective ratio DPP8/DPPIV” value at DPP8 stood at 907. Moreover, the “AUC0−t” value in series [3] came out at 2076 ngh/mL. This compound also gave a half-life in series [3] (male, SD, rat, plasma, po) of 2.45 h. In series [3] (setting [4]), the Cmax was found to be 917 ng/mL. In addition, the Tmax in series [3] (setting [5]) amounted to 0.81 h. The “Selective ratio DPP9/DPPIV” value on DPP9 is given as 241. Also, in the series with normal ICR mice, the “inhibition rate (blood glucose AUC)” value was found to be 38.3%. Further, the “AUC (area under curve of blood glucose)” value with normal ICR mice amounted to 215 ± 44 mmol·min/L.

As for `N[C@@H](CC(=O)N1CCn2c(nnc2C(F)(F)F)C1)Cc1cc(F)c(F)cc1F` [Sitagliptin, reference compound], in series [3], the “AUC0−t” value is 1655 ngh/mL, the Cmax stood at 477 ng/mL, the T1/2 was found to be 2.11 h and the Tmax was 0.44 h. In the series on normal ICR mice, the “inhibition rate (blood glucose AUC)” value is 31.1% and the “AUC (area under curve of blood glucose)” value turned out to be 240 ± 24 mmol·min/L.

Consider `CN(C)C(=O)N1C[C@@H]2CCN(C(=O)C[C@H](N)Cc3cc(F)c(F)cc3F)[C@@H]2C1` [Compound 3, (R)-3-amino-1-((3aS,6aS)-5-(N,N-dimethylaminoformyl)-hexahydropyrrolo[3,4-b]pyrrol-1(2H)-yl)-4-(2,4,5-trifluorophenyl)butane-1-one fumarate], for which, on DPPIV [1], the IC50 came to 17.7 ± 3.77 nM.

In the case of `CC(C)(F)C(=O)N1C[C@@H]2CCN(C(=O)C[C@H](N)Cc3cc(F)c(F)cc3F)[C@@H]2C1` [Compound 8, (R)-3-amino-1-((3aS,6aS)-5-(2-fluoro-2-methylpropionyl)-hexahydropyrrolo[3,4-b]pyrrol-1(2H)-yl)-4-(2,4,5-trifluorophenyl)butan-1-onefumarate], the IC50 was determined as 13500 ± 280 nM on FAP; 17600 ± 3610 nM at DPP8; 11.2 ± 3.76 nM against DPPIV [1]; 3550 ± 1020 nM on DPP9; 11 nM on DPPIV [2]. The “Selective ratio DPP8/DPPIV” value at DPP8 is reported as 1602. Besides, the “AUC0−t” value in series [3] is recorded as 2921 ngh/mL. The compound also had a half-life in series [3] (male, SD, rat, plasma, po) of 2.29 h. For the same compound, the Cmax in series [3] (setting [4]) came to 933 ng/mL. Besides, the Tmax in series [3] (setting [5]) is 1 h. Also, on DPP9, the “Selective ratio DPP9/DPPIV” value was 322. Besides, in the series with normal ICR mice, the “inhibition rate (blood glucose AUC)” value stood at 63.0%. The “AUC (area under curve of blood glucose)” value in the series with normal ICR mice stood at 129 ± 41 mmol·min/L.

The values above are taken from patent US8785477B2, “Hexahydropyrrolo[3,4-b]pyrrole derivatives, preparation methods and pharmaceutical uses thereof” (Shanghai Sun-Sail Pharmaceutical Science & Technology Co., …, priority 2010, dated 2014).
